Assay results: a melting point compilation (Tetko et al.; mined from patent text by program, amines drawn as free bases though some values may be those of a salt)

| Structure (SMILES) | melting point [°C] |
| --- | --- |
| COc1cc(C)cc(OC)c1N(C)C(C)=O | 160 to 161 |
| COc1c(N2CC(C)(N)C3(CC3)C2)c(F)cc2c(=O)c(C(=O)O)cn([C@@H]3C[C@@H]3F)c12 (stereo not given in full) | 195 to 200 |
| CCC(C(C)=CC(CNC(=O)c1cc(C)n[nH]1)=NO)[N+](=O)[O-] (stereo not given) | 188 to 189 |
| C=CCOc1ccc2c(C)c(C(=O)C=Cc3cc(OC)c(OC)c(OC)c3)c(=O)oc2c1 | 138 to 140 |
| CN1Cc2c(C(=O)OC(C)(C)C)ncn2-c2ccccc2C1=O | 216 to 217 |
| O=C(O)COc1nnc(C(Cl)(Cl)Cl)s1 | 100 |
| CN(Cc1ccc(NC(=O)C2=Cc3cc(-c4ccc5c(c4)OCO5)ccc3SCC2)cc1)C1CCOCC1 | 193 to 194 |
| CC(=O)OCCN1CSC(=Cc2cc(C(C)(C)C)c(O)c(C(C)(C)C)c2)C1=O | 152 to 155 |
| CCNc1c(C(=O)OCC)c(=O)n(CC)c2nc(C)ccc12 | 133 to 136 |
| Clc1cc(CCCn2ccnc2)ccc1OCc1coc(-c2cccs2)n1 | 93 to 94 |
| O=c1c2ccc(-c3nnn[nH]3)cc2[nH]c2ccc(-c3nnn[nH]3)cc12 | > 350 |
| N=C(NO)c1cnc(Cl)c(Cl)c1 | 182 to 184 |
| COc1cccc(N)c1C(=O)NC1CCN(C(C)CC(C(=O)N(C)C)(c2ccccc2)c2ccccc2)CC1O (stereo not given) | 175 |
| CC(Oc1cccc(Oc2c(Cl)cc(C(F)(F)F)cc2Cl)c1)(C(=O)Cl)[N+](=O)[O-] (stereo not given) | 92 |
| CN1CCN(c2nc3c(cc2F)c(=O)c(C(=O)O)cn3CCF)CC1 | 224 to 226 |
| CCCCCCCCCCCCCCCCCCNC(=O)C(=O)Nc1ccc(Sc2ccc(O)cc2)cc1 | 163 |

| Structure (SMILES) | melting point [°C] |
| --- | --- |
| NC(=O)N1CC(Oc2ccc(Br)cc2)C1 | 193 to 194 |
| COC(=O)C1CC(Oc2ccc(N)cc2)CN1C(=O)C1(C)CCc2c(C)c(O)c(C)c(C)c2O1 (stereo not given) | 110 to 112 |
| CN1C(=O)C(C)(C)Oc2c(C(=O)O)cc(Cl)cc21 | 235 to 236 |
| O=C(c1cc(C2=CC3CCC(C2)N3)ccn1)N(O)Cc1ccccc1 (stereo not given) | 95 to 100 |
| COC(=O)C1(CCCN2CCN(c3ccc(O)cc3)CC2)Sc2cc(OC)ccc2CCC1O (stereo not given) | 120 to 124 |
| Cc1ccc(S(=O)(=O)NC(C)(C)C)o1 | 113 to 114 |
| COc1cc2c(c(C(C)(C)C)c1)OC(=O)C2=C1C(=O)Nc2c(Br)cc(Br)cc21 | 303 to 314 |
| Nc1cc(N2C(=O)CN(CCCF)C2=O)c(F)cc1Cl | 89 to 91 |
| O=S(=O)(O)c1cc(O)ccc1O | 164 to 167 |
| Cc1cnc(NC(=O)Nc2ccc(N3CCN(C(=O)Nc4ccc(OCCO)cc4C(F)(F)F)CC3)cc2)s1 | 118 to 120 |
| O=C(O)C(=O)c1ccc2c(c1)OCO2 | 144 to 146 |
| C=CCNC(=O)NC(=O)c1c(Cl)cccc1[Si](C)(C)C | 68 to 71 |
| NC(=O)c1c(NC(=O)C2CC2)sc2c1CCC(F)(F)C2 | 207 to 208 |
| Cc1cc(-c2ccc(C(F)(F)F)nc2)nc(-c2ccnc(-c3cccc(S(N)(=O)=O)c3)c2)n1 | 255 |
| N#Cc1cc(-c2ccoc2)c2ccc(OCc3cccc(-c4ccc(Cl)cc4)n3)cc2c1 | 174 to 177 |
| CC(C)(C)OC(=O)NNC1C2CC3CC(C2)CC1C3 (stereo not given) | 90 to 92 |

Now from value to molecule:

| melting point [°C] | Structure (SMILES) |
| --- | --- |
| 160 to 162 | COc1ccc(-c2cc(-c3ccccc3)[nH]c2C(=O)Nc2ccc(C(=O)NO)o2)cc1 |
| 152 to 153 | NS(=O)(=O)c1cccc2ccccc12 |
| 91 to 92 | O=C(c1cccc(C(F)(F)F)c1)c1cc2c(Br)cccc2o1 |
| 129 | O=C(O)c1nc(SCc2ccccc2)ccc1SCc1ccccc1 |
| 158 to 160 | COc1ccc(-c2nnc(N3CCN(C)CC3)nc2-c2ccc(OC)cc2)cc1 |
| 224 to 226 | CC(=O)NC(Cc1ccc(OCCc2nc(-c3ccccc3)oc2C)cc1)C(N)=O (stereo not given) |
| 222 to 225 | CC(=O)Nc1ccc(C2=NC(C)(C)C(c3ccncc3)C2)cc1 (stereo not given) |
| 180 to 181 | OC1CCCc2nc3sccc3c(NCc3ccccc3)c21 (stereo not given) |
| 148 | CC(C)n1nc(O)ccc1=O |
| 56 to 58 | COC(=O)CCCCC(O)c1ccc(CCc2ccccc2)cc1 (stereo not given) |
| 151 | COP(=O)(OC)C(O)[C@H](CC1CCCCC1)NC(=O)[C@H](CC(C)C)NC(=O)OCc1ccccc1 (stereo not given in full) |
| 251 | Cc1cc(C(=O)Nc2cccc(Sc3ccc4nc(NC(=O)C5CC5)cn4n3)c2)n(C)n1 |
| 137 | COc1ccc(N2CCN(c3cccc(C)c3)CC2)nn1 |
| 215 to 217 | CN(C)CCCOc1cc(-c2ncccc2Cl)cc2c(Nc3nccs3)n[nH]c12 |
| 58 to 70 | O=C(O)CC(NC(=O)OCc1ccccc1)C(=O)CON1C(=O)Cc2ccccc21 (stereo not given) |
| 110 to 111 | COc1ccc(-c2cc(=S)ss2)cc1 |
| 232 to 234 | CC(O)Cc1c(O)c2cccnc2n(-c2ccc(Cl)c(Cl)c2)c1=O (stereo not given) |
| 197 to 198 | CCc1nc(N)nc(N)c1-c1ccccc1Cl |
| 204 to 206 | CS(=O)(=O)c1ccc(-c2nc3cc(C4CCN(S(=O)(=O)CCCO)CC4)ccc3o2)c(F)c1 |

| melting point [°C] | Structure (SMILES) |
| --- | --- |
| 160 to 161 | CCOC(=O)c1cc(-c2ccc(Cl)cc2)nc2ccnn12 |
| 149 to 150 | CCc1noc(-c2cn(-c3c(OCc4ccccc4)cccc3OCc3ccccc3)cn2)n1 |
| 341 to 343 | NC(=O)c1nc(-c2cccc(O)c2)nc2c1[nH]c(=O)n2C1CCc2ccccc21 (stereo not given) |
| 143 to 144 | Cc1nnc(-c2ccc3occ(-c4ccc(SCF)cc4)c3c2)o1 |
| 124 to 125 | COc1cc2ccc(C(=O)c3ccccc3)cc2cc1OC |
| 133 to 134 | CCOCn1c(C(=O)c2ccccc2)c(CC)c(=O)[nH]c1=O |
| 188 | Cc1cn(-c2cccc(C3=Nc4ccc(-c5ccc(F)cc5)cc4NC(=O)C3)c2)c(C)n1 |
| 138 to 140 | O=C(NNc1ccc(C=CC(c2cc(Cl)c(Cl)c(Cl)c2)C(F)(F)F)cc1)C1CC1 (stereo not given) |
| 225 to 227 | CC1CN(c2cc3c(cc2F)C(=O)c2nc4ccccc4c(=O)n2-3)CCN1 (stereo not given) |
| 146 to 147 | COc1cc2nc(C)nc(N3CCN(C(=O)Nc4ccc(Oc5ccccc5)cc4)CC3)c2cc1OC |
| 113 to 115 | O=S(=O)(Nc1onc(-c2ccccc2)c1Br)c1ccccc1 |
| 125 to 126 | Cc1ccc(OC(=O)N2CC3CC(CN(CC(O)COc4ccc(C#N)cc4)C3)C2)cc1 (stereo not given) |
| 215 to 216 | Cc1cnc(Nc2nc(-c3ccccc3)nc3ccccc23)s1 |
| 157 to 158 | CC(C)COc1ccc2c(n1)CC(c1ccccc1)CC2=O (stereo not given) |
| 134 to 135 | Cc1nc(-c2ccc(S(C)(=O)=O)cc2)c(-c2ccc(F)cc2)s1 |
| 230 to 235 | O=C(Nc1ccc(Br)cn1)[NH+]([O-])C(=O)c1c(Cl)cccc1Cl (stereo not given) |
| 275 to 276 | O=C(Nc1cccc(C(=O)O)c1)NC1C(=O)N(CC(=O)N2CCCC2)c2ccccc2N(C2CCCCC2)C1=O (stereo not given) |
| 140 to 141 | O[C@@H]1CNC[C@H]1Sc1ccccc1 (relative stereo) |
| 182 to 183 | O=C(O)COc1ccc(-c2cc(O)c(SCCc3ccccc3)c(=O)o2)cc1 |
